Data as given in US20080146624A1, “AMIDINES AS MODULATORS OF INDOLEAMINE 2,3-DIOXYGENASE” (INCYTE CORPORATION, priority 2006, published 2008).

What was measured:
LLC tumors = details: C57B1/6 mice, versus placebo; cited from earlier work
P815 tumor = details: pre-immunized immune-competent mice; cited from earlier work
[1] = biological target: T1, Human indoleamine 2,3-dioxygenasae (IDO) (Homo sapiens, UniProt P14902); assay: Human indoleamine 2,3-dioxygenase (IDO) enzyme assay; format: biochemical; details: 95 nM IDO, 2 mM D-Trp, pH 6.5, room temperature, absorbance at 321 nm
T1 construct: His tag (N); made in house; host or cells: E. coli
T1 sequence (P14902 whole entry): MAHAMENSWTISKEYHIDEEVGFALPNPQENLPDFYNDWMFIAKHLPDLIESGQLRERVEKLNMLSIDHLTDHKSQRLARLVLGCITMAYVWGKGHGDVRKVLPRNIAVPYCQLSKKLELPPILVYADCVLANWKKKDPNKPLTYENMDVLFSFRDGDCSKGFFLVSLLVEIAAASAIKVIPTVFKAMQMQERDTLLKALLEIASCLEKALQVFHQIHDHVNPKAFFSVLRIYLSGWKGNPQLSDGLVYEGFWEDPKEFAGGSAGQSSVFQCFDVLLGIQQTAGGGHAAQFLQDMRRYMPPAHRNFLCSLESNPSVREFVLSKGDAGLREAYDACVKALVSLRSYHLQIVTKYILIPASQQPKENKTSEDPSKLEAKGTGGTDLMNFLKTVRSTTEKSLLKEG
Procedure: Human indoleamine 2,3-dioxygenasae (IDO) with an N-terminal His tag was expressed in E. coli and purified to homogeneity. IDO catalyzes the oxidative cleavage of the pyrrole ring of the indole nucleus of tryptophan to yield N′-formylkynurenine. The assays were performed at room temperature as described in the literature using 95 nM IDO and 2 mM D-Trp in the presence of 20 mM ascorbate, 5 μM methylene blue and 0.2 mg/mL catalase in 50 mM potassium phosphate buffer (pH 6.5). The initial reaction rates were recorded by continuously following the absorbance increase at 321 nm due to the formation of N′-formlylkynurenine. […] The symbol “+” indicates IC50<[…]. The symbol “++” indicates […]. The symbol “+++” indicates IC50>[…].

IC50 [1] [µM] | SMILES | formation of tumors (LLC tumors) | growth of tumors (P815 tumor)
– | Cn1cc(C[C@H](N)C(=O)O)c2ccccc21 [Example 1-MT, 1-methyl-tryptophan] | markedly delayed | inhibited
> 10 | N#Cc1cccc(NC(=NO)c2ccoc2)c1 [Example 11, N-(3-cyanophenyl)-N′-hydroxy-furan-3-carboximidamide] | – | –
> 10 | N#Cc1cc(NC(=NO)c2ccoc2)ccc1F [Example 12, N-(3-cyano-4-fluorophenyl)-N′-hydroxyfuran-3-carboximidamide] | – | –
